Measured values published in US20240180886A1, “INHIBITORS OF PROTEIN TYROSINE PHOSPHATASE, COMPOSITIONS, AND METHODS OF USE” (BRISTOL-MYERS SQUIBB COMPANY, priority 2022, published 2024).

Experiments:
PTPN2 [1] = biological target: T1, PTPN2 (Homo sapiens (Human), UniProt P17706); test: PhosphoSens assay (PTPN2 BCHEM); type: biochemical; details: substrate AQT0264 20 μM, PTPN2 150 pM
Method: A PhosphoSens® kinase assay was performed as described by the vendor (AssayQuant Technologies, Marlborough, MA). Briefly, 1000× solutions of compounds were prepared in DMSO via serial dilution of the 10 mM DMSO stocks using 3-fold intervals in a 384-well reagent plate. 50 nL of the compound dilution series was then added to the corresponding wells of a 384-well assay plate. […] Finally, […] of 5× PTPN2 enzyme stock was added to each well of the assay plate for a final enzyme concentration of 150 pM. Reaction progress curves were collected by sampling fluorescence intensity at the excitation wavelength 360 nm (λex360) and emission wavelength 480 nm (λem480) every 71 seconds for one hour using a Synergy H4 plate reader (BioTek Instruments/Agilent Technologies, Winooski, VT) at room temperature.
Target sequence in this assay (P17706 whole entry): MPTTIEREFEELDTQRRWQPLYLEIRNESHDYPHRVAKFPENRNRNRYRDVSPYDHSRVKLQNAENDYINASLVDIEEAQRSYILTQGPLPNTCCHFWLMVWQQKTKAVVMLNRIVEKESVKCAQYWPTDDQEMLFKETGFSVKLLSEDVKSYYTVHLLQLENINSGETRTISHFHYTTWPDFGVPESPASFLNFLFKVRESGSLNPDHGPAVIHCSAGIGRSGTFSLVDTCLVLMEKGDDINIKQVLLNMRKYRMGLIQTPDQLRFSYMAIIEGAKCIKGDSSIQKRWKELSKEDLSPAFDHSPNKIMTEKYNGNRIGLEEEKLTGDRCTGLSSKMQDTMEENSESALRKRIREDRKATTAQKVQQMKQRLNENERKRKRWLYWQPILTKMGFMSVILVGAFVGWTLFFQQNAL

PTPN2 [2] = biological target: T1, PTPN2; test: Phosphatase activity assay using DiFMUP as substrate; type: biochemical; details: PTPN2 0.15 nM, 10 mM DTT
Method: The PTPN2 biochemical assay was performed as follows, a 5× stock solution of human PTPN2 (SRP5075, MilliporeSigma, Burlington, MA) and a 1.25× stock solution of DiFMUP (D6567, ThermoFisher Scientific, Waltham, MA), were prepared in 1× reaction buffer consisting of 50 mM HEPES, pH 7.4, 1 mM EDTA, 150 mM NaCl, 0.2 mg/mL BSA, 100 U/mL catalase and 10 mM DTT. […] of the DiFMUP substrate solution, for a final concentration of […] DiFMUP substrate, was added to a Corning 3574 384-well, white, non-binding surface microtiter plate containing […] of serially diluted test compounds prepared in DMSO. The reactions were started with the addition of […] of the enzyme solution, for a final PTPN2 concentration of 0.15 nM, and monitored every 105 seconds for 60 minutes at λEX 360/λEM 460 in a BioTek Synergy HTX plate reader (Agilent Technologies, Santa Clara, CA) at room temperature. The initial linear portions of the progress curves were fit according to a linear equation to yield the slopes and converted to % inhibition based on a value of 100% activity for the no inhibitor treated control. IC50 values of each compound were obtained by fitting the % inhibition-compound concentration curves using Dotmatics software (Dotmatics, Bishops Stortford, Hertfordshire, England),
Target sequence in this assay (P17706 other isoform, or with tags, fused parts or gaps isoform P17706-2): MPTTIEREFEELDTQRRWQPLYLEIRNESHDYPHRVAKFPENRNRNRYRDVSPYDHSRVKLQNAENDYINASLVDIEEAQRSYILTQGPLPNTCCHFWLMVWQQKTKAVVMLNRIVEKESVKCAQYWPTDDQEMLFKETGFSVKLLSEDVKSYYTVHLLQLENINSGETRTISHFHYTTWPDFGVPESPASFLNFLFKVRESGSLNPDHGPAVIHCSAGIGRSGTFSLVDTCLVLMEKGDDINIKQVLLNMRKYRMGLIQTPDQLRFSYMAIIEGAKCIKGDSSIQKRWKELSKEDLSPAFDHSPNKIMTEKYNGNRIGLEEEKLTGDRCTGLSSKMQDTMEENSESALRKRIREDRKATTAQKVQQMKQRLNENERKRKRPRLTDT

[3] = tested on: phosphorylated STAT1 in B16-F10 cells; test: Phospho-STAT1 (Tyr701) HTRF assay in B16-F10 cells with IFN-gamma; type: cell-based; details: mouse IFN-gamma 100 ng/mL, 1 hour, read-out: pSTAT1 HTRF B16F10 EC50
Method: B16-F10 cells (ATCC, Manassas, VA, #CRL-6475) were cultured in DMEM growth medium (ThermoFisher Scientific, Waltham, MA, #11995-040) supplemented with 10% heat-inactivated FBS (ThermoFisher Scientific, #16140-071) and 1% pen/strep (ThermoFisher Scientific, #15140-122). The cells were seeded into a white opaque 384-well tissue culture treated microplate (PerkinElmer, Waltham, MA, #6007688) at a density of 10,000 cells/well in 20 uL total volume and incubated overnight at 37 C and 5% CO2. 30 nL of compounds dissolved in DMSO were then transferred from a source plate into target wells with the Echo650 acoustic liquid handler (Beckman Coulter, Indianapolis, IN). Negative control wells received 30 nL of DMSO only (0.15% final concentration). Plates were returned to the incubator for 1 hour and then cells were treated with either 5 uL of growth medium or 5 uL of growth medium containing 500 ng/mL of recombinant mouse IFN-gamma protein (R&D Systems, Minneapolis, MN, #485-MI/CF, 100 ng/mL final concentration) using the Assist automated pipetting platform (INTEGRA Biosciences, Hudson, NH). Plates were incubated at 37 C for 1 hour and assayed for phosphorylated STAT1 protein levels with the phospho-STAT1 (Tyr701) HTRF kit (Cisbio, Bedford, MA, #63ADK026PEH) according to the manufacturer's instructions.

B16-F10 cells = test: Cell proliferation assay (CellTiter-Glo) in B16-F10 cells with IFN-gamma; type: cell-based; details: 120 h, mouse IFN-gamma 10 ng/mL, read-out: PTPN2 Prolif 5d B16F10 EC50

Row | SMILES | IC50 (PTPN2 [1]) [nM] | IC50 (PTPN2 [2]) [nM] | EC50 [3] [nM] | EC50 (B16-F10 cells) [nM]
1 | O=C1CN(c2c(O)cc(CNc3cc(C4CC4)ccn3)cc2F)S(=O)(=O)N1 [EXAMPLE 1, 5-[4-[[(4-cyclopropyl-2-pyridyl)amino]methyl]-2-fluoro-6-hydroxy-phenyl]-1,1-dioxo-1,2,5-thiadiazolidin-3-one] | 6 | 1 | 260 | 580
2 | O=C1CN(c2c(O)cc(CNc3cc(C(F)(F)F)ccn3)cc2F)S(=O)(=O)N1 [EXAMPLE 2, 5-[2-fluoro-6-hydroxy-4-[[[4-(trifluoromethyl)-2-pyridyl]amino]methyl]phenyl]-1,1-dioxo-1,2,5-thiadiazolidin-3-one] | 80 | 350 | 2430 | 2670
3 | O=C1CN(c2c(O)cc(CNc3ncccc3C(F)(F)F)cc2F)S(=O)(=O)N1 [EXAMPLE 3, 5-[2-fluoro-6-hydroxy-4-[[[3-(trifluoromethyl)-2-pyridyl]amino]methyl]phenyl]-1,1-dioxo-1,2,5-thiadiazolidin-3-one] | 570 | 1000 | > 15000 | > 15000
4 | CC(C)(C)c1ccc(NCc2cc(O)c(N3CC(=O)NS3(=O)=O)c(F)c2)nc1 [EXAMPLE 4, 5-[4-[[(5-tert-butyl-2-pyridyl)amino]methyl]-2-fluoro-6-hydroxy-phenyl]-1,1-dioxo-1,2,5-thiadiazolidin-3-one] | 30 | 8 | 1030 | 670
5 | Cc1cc(C)nc(NCc2cc(O)c(N3CC(=O)NS3(=O)=O)c(F)c2)c1 [EXAMPLE 5, 5-[4-[[(4,6-dimethyl-2-pyridyl)amino]methyl]-2-fluoro-6-hydroxy-phenyl]-1,1-dioxo-1,2,5-thiadiazolidin-3-one] | 1 | 1 | 30 | 50
6 | O=C1CN(c2c(O)cc(CNc3cc(OC4CC4)ccn3)cc2F)S(=O)(=O)N1 [EXAMPLE 6, 5-[4-[[[4-(cyclopropoxy)-2-pyridyl]amino]methyl]-2-fluoro-6-hydroxy-phenyl]-1,1-dioxo-1,2,5-thiadiazolidin-3-one] | 3 | 10 | 140 | 170
7 | Cc1ccnc(NCc2cc(O)c(N3CC(=O)NS3(=O)=O)c(F)c2)c1 [EXAMPLE 7, 5-[2-fluoro-6-hydroxy-4-[[(4-methyl-2-pyridyl)amino]methyl]phenyl]-1,1-dioxo-1,2,5-thiadiazolidin-3-one] | 5 | 3 | 180 | 170
8 | COc1cc(NCc2cc(O)c(N3CC(=O)NS3(=O)=O)c(F)c2)nc(OC)c1 [EXAMPLE 18, 5-[4-[[(4,6-dimethoxy-2-pyridyl)amino]methyl]-2-fluoro-6-hydroxy-phenyl]-1,1-dioxo-1,2,5-thiadiazolidin-3-one] |  | 20 | 670 | 670
9 | COc1ccc(OC)c(NCc2cc(O)c(N3CC(=O)NS3(=O)=O)c(F)c2)n1 [EXAMPLE 21, 5-[4-[[(3,6-dimethoxy-2-pyridyl)amino]methyl]-2-fluoro-6-hydroxy-phenyl]-1,1-dioxo-1,2,5-thiadiazolidin-3-one] |  | 20 | 9450 | 6700
10 | COc1ccnc(NCc2cc(O)c(N3CC(=O)NS3(=O)=O)c(F)c2)c1OC [EXAMPLE 27, 5-[4-[[(3,4-dimethoxy-2-pyridyl)amino]methyl]-2-fluoro-6-hydroxy-phenyl]-1,1-dioxo-1,2,5-thiadiazolidin-3-one] |  | 810 | > 15000 | 1710
11 | COc1ccc(C)c(NCc2cc(O)c(N3CC(=O)NS3(=O)=O)c(F)c2)n1 [EXAMPLE 29, 5-[2-fluoro-6-hydroxy-4-[[(6-methoxy-3-methyl-2-pyridyl)amino]methyl]phenyl]-1,1-dioxo-1,2,5-thiadiazolidin-3-one] |  | 5 | 7380 | 9020
12 | COc1cc(C)cc(NCc2cc(O)c(N3CC(=O)NS3(=O)=O)c(F)c2)n1 [EXAMPLE 39, 5-(2-fluoro-6-hydroxy-4-(((6-methoxy-4-methylpyridin-2-yl)amino)methyl)phenyl)-1,2,5-thiadiazolidin-3-one 1,1-dioxide] |  | 140 | 1940 | 4710
13 | N#Cc1cccc(NCc2cc(O)c(N3CC(=O)NS3(=O)=O)c(F)c2)n1 [EXAMPLE 40, 6-[[3-fluoro-5-hydroxy-4-(1,1,4-trioxo-1,2,5-thiadiazolidin-2-yl)phenyl]methylamino]pyridine-2-carbonitrile] |  | 5 | 1750 | 2190
14 | COc1cc(C)nc(NCc2cc(O)c(N3CC(=O)NS3(=O)=O)c(F)c2)c1 [EXAMPLE 41, 5-[2-fluoro-6-hydroxy-4-[[(4-methoxy-6-methyl-2-pyridyl)amino]methyl]phenyl]-1,1-dioxo-1,2,5-thiadiazolidin-3-one] |  | 2 | 59 | 50
15 | O=C1CN(c2c(O)cc(CNc3cccc(C(F)F)n3)cc2F)S(=O)(=O)N1 [EXAMPLE 42, 5-[4-[[[6-(difluoromethyl)-2-pyridyl]amino]methyl]-2-fluoro-6-hydroxy-phenyl]-1,1-dioxo-1,2,5-thiadiazolidin-3-one] |  | 40 | 4700 | 160
16 | O=C1CN(c2c(O)cc(CNc3cccc(OC(F)F)n3)cc2F)S(=O)(=O)N1 [EXAMPLE 43, 5-[4-[[[6-(difluoromethoxy)-2-pyridyl]amino]methyl]-2-fluoro-6-hydroxy-phenyl]-1,1-dioxo-1,2,5-thiadiazolidin-3-one] |  | 110 | > 15000 | 6570
17 | CN(C)c1cccc(NCc2cc(O)c(N3CC(=O)NS3(=O)=O)c(F)c2)n1 [EXAMPLE 44, 5-(4-(((6-(dimethylamino)pyridin-2-yl)amino)methyl)-2-fluoro-6-hydroxyphenyl)-1,2,5-thiadiazolidin-3-one 1,1-dioxide] |  | 10 | 4850 | 5750
18 | Cc1cc(Br)nc(NCc2cc(O)c(N3CC(=O)NS3(=O)=O)c(F)c2)c1 [EXAMPLE 48, 5-(4-(((6-bromo-4-methylpyridin-2-yl)amino)methyl)-2-fluoro-6-hydroxyphenyl)-1,2,5-thiadiazolidin-3-one 1,1-dioxide] |  | 40 | 3110 | 4620
19 | Cc1cc(NCc2cc(O)c(N3CC(=O)NS3(=O)=O)c(F)c2)nc(N2CCOCC2)c1 [EXAMPLE 49, 5-(2-fluoro-6-hydroxy-4-(((4-methyl-6-morpholinopyridin-2-yl)amino)methyl)phenyl)-1,2,5-thiadiazolidin-3-one 1,1-dioxide] |  | 20 | 4820 | 14700
20 | O=C1CN(c2c(O)cc(CNc3cccc(=O)[nH]3)cc2F)S(=O)(=O)N1 [EXAMPLE 51, 5-(2-fluoro-6-hydroxy-4-(((6-oxo-1,6-dihydropyridin-2-yl)amino)methyl)phenyl)-1,2,5-thiadiazolidin-3-one 1,1-dioxide] |  | 0.2 | 200 | 600
21 | Cc1cc(Oc2ccccc2)cc(NCc2cc(O)c(N3CC(=O)NS3(=O)=O)c(F)c2)n1 [EXAMPLE 52, 5-(2-fluoro-6-hydroxy-4-(((6-methyl-4-phenoxypyridin-2-yl)amino)methyl)phenyl)-1,2,5-thiadiazolidin-3-one 1,1-dioxide] |  | 10 | 6290 | 3340
